In patent US10723711B2, “1,1,1-trifluoro-3-hydroxypropan-2-yl carbamate derivatives and 1,1,1-trifluoro-4-hydroxybutan-2-yl carbamate derivatives as MAGL inhibitors” (PFIZER INC., priority 2015, dated 2020):
Where two headings read alike, the source gives them in different places.

Tests used:
[1] = molecular target: T1, human recombinant Monoacylglycerol Lipase (Homo sapiens, UniProt Q99685); assay: MAGL inhibition enzymatic assay, fluorogenic substrate 7-HCA, IC50 at T=0 min or after 30 minute incubation (T=30 min); format: biochemical; conditions: geometric mean of 2-4 determinations unless otherwise indicated
T1 sequence (Q99685 1-303): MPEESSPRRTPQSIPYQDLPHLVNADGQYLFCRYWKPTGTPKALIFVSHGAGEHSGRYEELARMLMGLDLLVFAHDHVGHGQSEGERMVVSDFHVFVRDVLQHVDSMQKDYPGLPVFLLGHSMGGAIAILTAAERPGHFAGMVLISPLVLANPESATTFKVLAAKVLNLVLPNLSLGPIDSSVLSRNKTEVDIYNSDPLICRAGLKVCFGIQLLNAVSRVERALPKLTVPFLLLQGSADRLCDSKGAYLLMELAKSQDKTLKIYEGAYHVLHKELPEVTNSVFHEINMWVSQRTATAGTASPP
Method: An equal volume of 7-HCA in assay buffer with 10% DMSO was added either immediately (T=0 min) or after a 30 minute incubation (T=30 min) to initiate the reaction. […] After these dilutions, the final concentration of the test compound ranged from 3 μM to 0.03 nM. […] IC50 values were generated based on a four parameter fit model using ABASE software from IDBS.

[2] = Prodrug in vivo pharmacokinetics in rats after intravenous administration (LC-MS-MS of prodrug and parent); conditions: for Vd: Vdss
Method: (§1) Pharmacokinetic parameters derived from the plasma analytical data were determined using Watson LIMS 7.2.003 (Thermo Fisher Scientific, Waltham, Mass.).

[3] = Prodrug in vivo pharmacokinetics in dogs after intravenous administration (LC-MS-MS of prodrug and parent); conditions: for % AUC Extrap / AUC Extrap / CL / Co / Rate Constant / T½ / Vdss / AUC: Beagle dogs; for clearance / Vd: beagle, dog, in vivo, iv, 0.7 mg/kg; for clearance: CL; for Vd: Vdss
Method: as §1

[4] = T = 0 min (substrate added immediately), read-out: MAGL (T = 0 min) IC50
[5] = T = 30 min (30 minute incubation), read-out: MAGL (T = 30 min) IC50
[6] = Example 32 in plasma, rats, IV Example 32 (2 mg/kg active), Mean
[7] = Example 32 in plasma, rats, IV Example 32 (2 mg/kg active), Rat 03
[8] = Example 32 in plasma, rats, IV Example 32 (2 mg/kg active), Rat 04
[9] = Example 32 in plasma, IV Example 32 at 1 mg/kg, Dog 03
[10] = Example 32 in plasma, IV Example 32 at 1 mg/kg, Dog 04
[11] = Example 32 in plasma, IV Example 32 at 1 mg/kg, Mean
[12] = Example 31 in plasma, Wistar Hann rats, IV Example 31 at 1.48 mg/kg, Mean
[13] = Example 31 in plasma, Wistar Hann rats, IV Example 31 at 1.48 mg/kg, Rat 01
[14] = Example 31 in plasma, Wistar Hann rats, IV Example 31 at 1.48 mg/kg, Rat 02
[15] = Example 31 in plasma, IV Example 31 at 0.7 mg/kg, Dog 01
[16] = Example 31 in plasma, IV Example 31 at 0.7 mg/kg, Dog 02
[17] = Example 31 in plasma, IV Example 31 at 0.7 mg/kg, Mean

In the case of `O=C(O[C@H](COP(=O)([O-])[O-])C(F)(F)F)N1CCC2(CC1)CN(S(=O)(=O)c1ccc(F)cc1)CCO2.[Na+].[Na+]` [Example 32, (2R)-3,3,3-Trifluoro-2-[({4-[(4-fluorophenyl)sulfonyl]-1-oxa-4,9-diazaspiro[5.5]undec-9-yl}carbonyl)oxy]propyl phosphate, disodium salt], the IC50 [1, 4] is reported as over 3 µM, the IC50 [1, 5] is reported as over 3 µM and the “% AUC Extrap” value [2, 6] is reported as 0.532%. For the same compound, the AUC [2, 6] was 159 ng·h/mL, the “AUC Extrap” value [2, 6] was 160 ng·h/mL and the CL [2, 6] was 215 mL/min/kg. For the same compound, the Co [2, 6] was 3760 ng/mL, the “Rate Constant” value [2, 6] was 5.94 h⁻¹ and the T½ [2, 6] was 7.32 min. The Vdss [2, 6] was 0.597 L/kg, the “% AUC Extrap” value [2, 7] was 0.232% and the “AUC Extrap” value [2, 7] was 185 ng·h/mL. For the same compound, the CL [2, 7] was 180 mL/min/kg, the Co [2, 7] was 4480 ng/mL and the “Rate Constant” value [2, 7] was 4.73 h⁻¹. For the same compound, the T½ [2, 7] was 8.82 min, the Vdss [2, 7] was 0.515 L/kg and the AUC ([2]; Example 32 in plasma, rats, IV Example 32 (2 mg/kg active), Rat 03, AUC interval 0-1 Hours) was 185 ng·h/mL. For the same compound, the “% AUC Extrap” value [2, 8] was 0.832%, the “AUC Extrap” value [2, 8] was 134 ng·h/mL and the CL [2, 8] was 249 mL/min/kg. For the same compound, the Co [2, 8] was 3040 ng/mL, the “Rate Constant” value [2, 8] was 7.14 h⁻¹ and the T½ [2, 8] was 5.83 min. For the same compound, the Vdss [2, 8] was 0.679 L/kg, the AUC ([2]; Example 32 in plasma, rats, IV Example 32 (2 mg/kg active), Rat 04, AUC interval 0-0.5 Hours) was 133 ng·h/mL and the “% AUC Extrap” value [3, 9] was 0.0443%. The “AUC Extrap” value [3, 9] was 146 ng·h/mL, the CL [3, 9] was 114 mL/min/kg and the Co [3, 9] was 1220 ng/mL. For the same compound, the “Rate Constant” value [3, 9] was 5.08 h⁻¹, the T½ [3, 9] was 8.16 min and the Vdss [3, 9] was 0.751 L/kg. The AUC ([3]; Example 32 in plasma, IV Example 32 at 1 mg/kg, Dog 03, AUC interval 0-1 Hours) was 146 ng·h/mL, the “% AUC Extrap” value [3, 10] was 0.150% and the “AUC Extrap” value [3, 10] was 229 ng·h/mL. The CL [3, 10] was 72.8 mL/min/kg, the Co [3, 10] was 2370 ng/mL and the “Rate Constant” value [3, 10] was 5.06 h⁻¹. The T½ [3, 10] was 8.22 min, the Vdss [3, 10] was 0.357 L/kg and the AUC ([3]; Example 32 in plasma, IV Example 32 at 1 mg/kg, Dog 04, AUC interval 0-1 Hours) was 229 ng·h/mL. For the same compound, the “% AUC Extrap” value [3, 11] was 0.0972%, the AUC [3, 11] was 188 ng·h/mL and the “AUC Extrap” value [3, 11] was 188 ng·h/mL. The CL [3, 11] was 93.4 mL/min/kg, the Co [3, 11] was 1800 ng/mL and the “Rate Constant” value [3, 11] was 5.07 h⁻¹. The T½ [3, 11] was 8.22 min and the Vdss [3, 11] was 0.554 L/kg.

For `O=C(O[C@H](COP(=O)([O-])[O-])C(F)(F)F)N1CCC2(CC1)C[C@@H](NS(=O)(=O)c1ccccc1)CO2.[Na+].[Na+]` [Example 31, (2R)-3,3,3-Trifluoro-2-[({(3R)-3-[(phenylsulfonyl)amino]-1-oxa-8-azaspiro[4.5]dec-8-yl}carbonyl)oxy]propyl phosphate, disodium salt], the IC50 [1, 4] was over 3 µM, the IC50 [1, 5] was over 3 µM and the “% AUC Extrap” value [2, 12] was 1.41%. The AUC [2, 12] was 43.0 ng·h/mL, the “AUC Extrap” value [2, 12] was 43.6 ng·h/mL and the Co [2, 12] was 476 ng/mL. The “Rate Constant” value [2, 12] was 12.1 h⁻¹, the T½ [2, 12] was 3.75 min and the “% AUC Extrap” value [2, 13] was 1.19%. The “AUC Extrap” value [2, 13] was 43.6 ng·h/mL, the Co [2, 13] was 399 ng/mL and the “Rate Constant” value [2, 13] was 8.61 h⁻¹. For the same compound, the T½ [2, 13] was 4.83 min, the AUC ([2]; Example 31 in plasma, Wistar Hann rats, IV Example 31 at 1.48 mg/kg, Rat 01, AUC interval 0-0.5 Hours) was 43.1 ng·h/mL and the “% AUC Extrap” value [2, 14] was 1.62%. For the same compound, the “AUC Extrap” value [2, 14] was 43.6 ng·h/mL, the Co [2, 14] was 553 ng/mL and the “Rate Constant” value [2, 14] was 15.6 h⁻¹. It also gave a T½ [2, 14] of 2.67 min, an AUC ([2]; Example 31 in plasma, Wistar Hann rats, IV Example 31 at 1.48 mg/kg, Rat 02, AUC interval 0-0.25 Hours) of 42.9 ng·h/mL and a clearance ([2]; Wistar Hann, rat, in vivo, iv, 1.48 mg/kg) of 566 mL/min/kg. It also gave a Vd ([2]; Wistar Hann, rat, in vivo, iv, 1.48 mg/kg, Example 31 in plasma, Wistar Hann rats, IV Example 31 at 1.48 mg/kg, Mean) of 2.23 L/kg, a Vd ([2]; Wistar Hann, rat, in vivo, iv, 1.48 mg/kg, Example 31 in plasma, Wistar Hann rats, IV Example 31 at 1.48 mg/kg, Rat 01) of 2.86 L/kg and a Vd ([2]; Wistar Hann, rat, in vivo, iv, 1.48 mg/kg, Example 31 in plasma, Wistar Hann rats, IV Example 31 at 1.48 mg/kg, Rat 02) of 1.59 L/kg. For the same compound, the “% AUC Extrap” value [3, 15] was 0.181%, the “AUC Extrap” value [3, 15] was 108 ng·h/mL and the Co [3, 15] was 1630 ng/mL. The “Rate Constant” value [3, 15] was 11.3 h⁻¹, the T½ [3, 15] was 3.68 min and the AUC ([3]; Example 31 in plasma, IV Example 31 at 0.7 mg/kg, Dog 01, AUC interval 0-0.5 Hours) was 108 ng·h/mL. The “% AUC Extrap” value [3, 16] was 0.103%, the “AUC Extrap” value [3, 16] was 53.9 ng·h/mL and the Co [3, 16] was 821 ng/mL. The “Rate Constant” value [3, 16] was 11.2 h⁻¹, the T½ [3, 16] was 3.72 min and the AUC ([3]; Example 31 in plasma, IV Example 31 at 0.7 mg/kg, Dog 02, AUC interval 0-0.5 Hours) was 53.8 ng·h/mL. The “% AUC Extrap” value [3, 17] was 0.142%, the AUC [3, 17] was 80.9 ng·h/mL and the “AUC Extrap” value [3, 17] was 81.0 ng·h/mL. For the same compound, the Co [3, 17] was 1230 ng/mL, the “Rate Constant” value [3, 17] was 11.3 h⁻¹ and the T½ [3, 17] was 3.7 min. It also gave a clearance [3, 15] of 108 mL/min/kg, a clearance [3, 16] of 216 mL/min/kg and a clearance [3, 17] of 162 mL/min/kg. It also gave a Vd [3, 15] of 0.235 L/kg, a Vd [3, 16] of 0.465 L/kg and a Vd [3, 17] of 0.35 L/kg.
